From patent US20140243403A1, “TREATING COLORECTAL, PANCREATIC, AND LUNG CANCER” (The General Hospital Corporation, priority 2011, published 2014)

Legend:
[1] = system: TOP-FLASH reporter in YAPC cells; test: TOP-FLASH reporter in YAPC PDAC cells; type: cell-based; conditions: KRAS-dependent YAPC cells
Excerpt: (§1) (E) TOP-FLASH reporter activity in KRAS mutant PDAC cell lines following inhibition of GSK-3 kinase with increasing concentrations of the small molecule inhibitor BIO. PANC-1 are KRAS-independent cells and YAPC are KRAS-dependent cells. Luminescence counts (photons/sec) are plotted on the y-axis. Data are representative of three independent experiments+/−SEM.
(§2) (F) TOP-FLASH reporter dose-response relationships in PANC-1 and YAPC cells following combined treatment with GSK-3 and TAK1 inhibitors (BIO and 5Z-7-Oxozeaenok respectively). Luminescence counts (photons/sec) are plotted on the y-axis. Data are represented as the means of triplicates+/−SEM.
(§3) To further test the role of Wnt signaling in this context, experiments were performed using two KRAS mutant pancreatic cancer (PDAC) cell lines, PANC-1 and YAPC, which are APC wild-type. PANC-1 cells are KRAS-independent, whereas YAPC cells are KRAS-dependent, a distinction that has been linked to increased KRAS signaling in YAPC cells (Singh et al., 2009). […] In contrast, PANC-1 cells undergo stronger induction of TOP-FLASH activity with combined GSK-3 and TAK1 inhibition (FIG. 11F, […]). […] Finally, a constitutively-activated mutant of β-catenin (CTNNB1-CA) containing S33Y and S45A missense mutations was introduced into KRAS-dependent SW620 cells. This mutant caused partial losses in both KRAS and TAK1 dependencies (FIGS. 13A-C). […]

[2] = system: TOP-FLASH reporter in PANC-1 cells; test: TOP-FLASH reporter in PANC-1 PDAC cells; type: cell-based; conditions: KRAS-independent PANC-1 cells
Excerpt: as §1, §2, §3

Compound: O=C1Nc2cc(Br)ccc2/C1=C1/Nc2ccccc2/C1=N\O [BIO]
- TOP-FLASH reporter induction [1]: strong, dose-dependent TOP-FLASH reporter induction
- TOP-FLASH reporter induction [2]: weak induction
